pEC50: −log10 of the molar value. “And” between values parts separate entries of the source, which are not always exact repeats. Identical values can stand only once.
Tests used:
[1] = target: T1, 14-3-3β/CFTRpS753pS768 complex (Homo sapiens, UniProt P13569+P31946); assay: FP assay, 14-3-3β titration at constant compound concentration (apparent KD); assay type: binding; conditions: for FP signal, 14-3-3β titration: replicates
T1 construct: His6 (cleaved yes); made in house; peptide synthetic
Protocol: FC-A (100 µM) was added as a positive control and DMSO as the negative control. […] Background polarization was subtracted from all values, n = 3 technical replicates. […] Source data are provided as a Source Data file. […]
The FITC-labeled peptides were dissolved in FP buffer (10 mM HEPES pH 7.4, 150 mM NaCl, 0.1% Tween20, 1 mg/mL BSA) to a final concentration of 100 nM or 10 nM. […] The dilution series were made in 384 Corning Black Round Bottom well plates and their polarization was measured with a Tecan Infinite F500 plate reader (ex. = 485 nm, em. = 535 nm). The method of fitting of the curves was: “log(agonist) vs. response – Variable slope (four parameters)” from GraphPad Prism. The equation is Y = Bottom + (Top-Bottom)/(1 + 10^((LogEC50-X)*HillSlope)).
from the hit validation library.
f the compound, 100 µM FC-A, or both compound and FC-A, 100 µM each. Background polarization was subtracted f
rom all values, n=3 technical replicates.
Source data are provided as a Source Data file.

[2] = target: T1, 14-3-3β/CFTRpS753pS768 complex; assay: Dose-response fluorescence polarization (FP) assay, compound titration; assay type: binding; conditions: for FP signal: With 14-3-3
Protocol: The 14-3-3β concentration used for the FP screening assay was 10 μM (dashed line). c HTS FP assay of the Cyclenium library. The samples contain 100 nM of FITC-CFTR_pS753pS768 peptide, 10 μM 14-3-3β, and 50 μM compound. FC-A (100 µM) was added as a positive control and DMSO as the negative control. Hit compounds are defined as a polarization increase which is higher than 20% of the response of FC-A. Red squares are compounds that appeared positive in the negative control without 14-3-3. […] Background polarization was subtracted from all values, n = 3 technical replicates. Compounds selected for further analysis are indicated with an asterisk. e Polarization in the absence of 14-3-3. […] Source data are provided as a Source Data file. […]
The FITC-labeled peptides were dissolved in FP buffer (10 mM HEPES pH 7.4, 150 mM NaCl, 0.1% Tween20, 1 mg/mL BSA) to a final concentration of 100 nM or 10 nM. For the dose-response assays, a 14-3-3β concentration of 10 μM was used while titrating the compounds in a two-times dilution series and, for the other assays, a dilution series of 14-3-3β was made with constant concentration of compound. The dilution series were made in 384 Corning Black Round Bottom well plates and their polarization was measured with a Tecan Infinite F500 plate reader (ex. = 485 nm, em. = 535 nm). The method of fitting of the curves was: “log(agonist) vs. response – Variable slope (four parameters)” from GraphPad Prism. The equation is Y = Bottom + (Top-Bottom)/(1 + 10^((LogEC50-X)*HillSlope)).

T1 sequence (P31946 whole entry): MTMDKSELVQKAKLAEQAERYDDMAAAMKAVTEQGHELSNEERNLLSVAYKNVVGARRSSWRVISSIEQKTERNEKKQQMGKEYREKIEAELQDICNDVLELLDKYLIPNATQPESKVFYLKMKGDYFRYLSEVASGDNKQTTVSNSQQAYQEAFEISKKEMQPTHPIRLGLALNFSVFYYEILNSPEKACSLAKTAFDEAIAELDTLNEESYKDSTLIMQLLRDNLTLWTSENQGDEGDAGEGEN
T1 sequence (P13569 747-774 limits assumed): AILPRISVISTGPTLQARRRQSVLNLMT

FP signal, 14-3-3β titration ([1]; 14-3-3β 1.90735e-9 M, FC-A + CY compound): 2 and 4 and 0
FP signal, 14-3-3β titration ([1]; 14-3-3β 1.90735e-9 M, compound 100 μM): -2
FP signal, 14-3-3β titration ([1]; 14-3-3β 3.8147e-9 M, FC-A + CY compound): 2 and 1 and -1
FP signal, 14-3-3β titration ([1]; 14-3-3β 3.8147e-9 M, compound 100 μM): 2 and 3 and 1
FP signal, 14-3-3β titration ([1]; 14-3-3β 7.62939e-9 M, FC-A + CY compound): 2 and 1 and 0
FP signal, 14-3-3β titration ([1]; 14-3-3β 7.62939e-9 M, compound 100 μM): 1 (2×) and 4
FP signal, 14-3-3β titration ([1]; 14-3-3β 1.52588e-8 M, FC-A + CY compound): 7 and 4 and 6
FP signal, 14-3-3β titration ([1]; 14-3-3β 1.52588e-8 M, compound 100 μM): 5 (2×) and 3
FP signal, 14-3-3β titration ([1]; 14-3-3β 3.05176e-8 M, FC-A + CY compound): 3 and 4 and 5
FP signal, 14-3-3β titration ([1]; 14-3-3β 3.05176e-8 M, compound 100 μM): 3 and 1 (2×)
FP signal, 14-3-3β titration ([1]; 14-3-3β 6.10352e-8 M, FC-A + CY compound): 6 and 9 (2×)
FP signal, 14-3-3β titration ([1]; 14-3-3β 6.10352e-8 M, compound 100 μM): 5 and 2 (2×)
FP signal, 14-3-3β titration ([1]; 14-3-3β 1.2207e-7 M, FC-A + CY compound): 10 and 5 and 8
FP signal, 14-3-3β titration ([1]; 14-3-3β 1.2207e-7 M, compound 100 μM): 3 and 6 and 2
FP signal, 14-3-3β titration ([1]; 14-3-3β 2.44141e-7 M, FC-A + CY compound): 16 and 15 and 11
FP signal, 14-3-3β titration ([1]; 14-3-3β 2.44141e-7 M, compound 100 μM): 7 and 3 and 1
FP signal, 14-3-3β titration ([1]; 14-3-3β 4.88281e-7 M, FC-A + CY compound): 18 and 25 and 20
FP signal, 14-3-3β titration ([1]; 14-3-3β 4.88281e-7 M, compound 100 μM): 9 and 4 (2×)
FP signal, 14-3-3β titration ([1]; 14-3-3β 9.76563e-7 M, FC-A + CY compound): 36 and 40 and 38
FP signal, 14-3-3β titration ([1]; 14-3-3β 9.76563e-7 M, compound 100 μM): 9 and 11 and 10
FP signal, 14-3-3β titration ([1]; 14-3-3β 1.95313e-6 M, FC-A + CY compound): 52 and 57 and 55
FP signal, 14-3-3β titration ([1]; 14-3-3β 1.95313e-6 M, compound 100 μM): 11 (2×) and 13
FP signal, 14-3-3β titration ([1]; 14-3-3β 3.90625e-6 M, FC-A + CY compound): 75 and 77 and 73
FP signal, 14-3-3β titration ([1]; 14-3-3β 3.90625e-6 M, compound 100 μM): 25 and 27 and 24
FP signal, 14-3-3β titration ([1]; 14-3-3β 7.8125e-6 M, FC-A + CY compound): 105 (2×) and 102
FP signal, 14-3-3β titration ([1]; 14-3-3β 7.8125e-6 M, compound 100 μM): 44 and 43 and 34
FP signal, 14-3-3β titration ([1]; 14-3-3β 1.5625e-5 M, FC-A + CY compound): 123 and 125 and 121
FP signal, 14-3-3β titration ([1]; 14-3-3β 1.5625e-5 M, compound 100 μM): 59 and 58 and 51
FP signal, 14-3-3β titration ([1]; 14-3-3β 3.125e-5 M, FC-A + CY compound): 141 (2×) and 139
FP signal, 14-3-3β titration ([1]; 14-3-3β 3.125e-5 M, compound 100 μM): 76 (2×) and 79
FP signal, 14-3-3β titration ([1]; 14-3-3β 6.25e-5 M, FC-A + CY compound): 152 and 151 and 156
FP signal, 14-3-3β titration ([1]; 14-3-3β 6.25e-5 M, compound 100 μM): 97 (2×) and 95
FP signal, 14-3-3β titration ([1]; 14-3-3β 0.000125 M, FC-A + CY compound): 161 and 159 and 162
FP signal, 14-3-3β titration ([1]; 14-3-3β 0.000125 M, compound 100 μM): 113 and 114 and 116
Fluorescence polarization signal, 14-3-3β titration ([1]; CY compound (100 μM), 14-3-3β concentration 0.00025 M): 132 and 131 and 127
Fluorescence polarization signal, 14-3-3β titration ([1]; CY compound (100 μM), 14-3-3β concentration 0.0005 M): 146 and 152
Fluorescence polarization signal, 14-3-3β titration ([1]; FC-A + CY compound, 14-3-3β concentration 0.00025 M): 166 and 162
Fluorescence polarization signal, 14-3-3β titration ([1]; FC-A + CY compound, 14-3-3β concentration 0.0005 M): 175 and 173 and 177
pEC50 ([2]; 14-3-3β 10 μM, labeled CFTRpS753pS768 100 nM, read-out: EC50): 3.20
FP signal ([2]; compound 324.2 pM): 2
FP signal ([2]; compound 648.5 pM): 1
FP signal ([2]; compound 1.297e-9 M): 2
FP signal ([2]; compound 2.59399e-9 M): 3
FP signal ([2]; compound 5.18799e-9 M): 3
FP signal ([2]; compound 1.0376e-8 M): 3
FP signal ([2]; compound 2.0752e-8 M): 3
FP signal ([2]; compound 4.15039e-8 M): 3
FP signal ([2]; compound 8.30078e-8 M): 2
FP signal ([2]; compound 1.66016e-7 M): 5
FP signal ([2]; compound 3.32031e-7 M): 4
FP signal ([2]; compound 6.64062e-7 M): 3
FP signal ([2]; compound 1.32813e-6 M): 4
FP signal ([2]; compound 2.65625e-6 M): 5
FP signal ([2]; compound 5.3125e-6 M): 6
FP signal ([2]; compound 1.0625e-5 M): 4
FP signal ([2]; compound 2.125e-5 M): 10
FP signal ([2]; compound 4.25e-5 M): 18
FP signal ([2]; compound 8.5e-5 M): 37
FP signal ([2]; compound 0.00034 M): 117
FP signal ([2]; compound 0.00068 M): 184
FP signal ([2]; compound […]): 71
SMILES: N=C(N)NCCCC1NC(=O)C(CCC(N)=O)NC(=O)C(CCCNC(=N)N)NC(=O)C2Cc3ccccc3CN2Cc2cccc(c2)-c2ccccc2CNC1=O (stereo not shown) [CY007493]
